Structures can show the parent of a compound that is named as a salt.
Assays:
[1] = Pharmacokinetic evaluation in cynomolgus monkeys; type: in vivo
Text: (§1) In this study, male cynomolgus monkeys were selected as test animals, and LC/MS/MS method was used to quantify plasma concentrations of the test compound intravenously injected or intragastrically administered to cynomolgus monkeys at different time points, so as to evaluate the pharmacokinetic profile of the test drug in cynomolgus monkeys.
Cynomolgus monkeys (male, 2 to 5 kg, Hainan Jingang Biotech Co., Ltd.).
A clarified solution of the test compound was slowly injected into cynomolgus monkeys (feeding) via the peripheral vein (vehicle: 5% DMSO/10% Solutol/85% H2O), or intragastrically administered into cynomolgus monkeys (feeding). For intravenous injection, 0.5 mL of blood was collected from the peripheral vein at 0 h (pre-administration) and 0.083 h, 0.25 h, 0.5 h, 1 h, 2 h, 4 h, 6 h, 8 h, and 24 h after administration, placed in an anticoagulant tube added with EDTA-2K, and centrifuged at 3200 g for 10 minutes at 2 to 8° C. to separate the supernatant. For oral administration, 0.5 mL of blood was collected from the peripheral vein at 0 h (pre-administration) and 0.083 h, 0.25 h, 0.5 h, 1 h, 2 h, 4 h, 6 h, 8 h, and 24 h after administration, placed in an anticoagulant tube added with EDTA-2K, and centrifuged at 3200 g for 10 minutes at 2 to 8° C. to separate the supernatant. Plasma concentrations were determined by LC-MS/MS method, and relevant pharmacokinetic parameters were calculated using Phoenix WinNonlin 6.3 pharmacokinetic software with non-compartmental model linear-log trapezoidal method.

[2] = Pharmacokinetic evaluation in mice, experimental operation B (C57BL/6N); type: in vivo; settings: C57BL/6N mice
Text: as §1, with “study, CD-1 or C57BL/6N” for “study,”, “mice” for “cynomolgus monkeys”, “mice.” for “cynomolgus monkeys.”
CD-1 mice (male, 20 to 35 g, 7 to 10 weeks old, Beijing Vital River) or C57BL/6N mice (male, 20 to 30 g, 7 to 10 weeks old, Beijing Vital River)
A clarified solution or suspension of the test compound was injected into C57BL/6N mice (overnight fasting) via the tail vein (vehicle: 5% DMSO/10% Solutol/85% H2O), or intragastrically administered into C57BL/6N mice (overnight fasting). For intravenous injection, […] of blood was collected via the cheek puncture at 0 h (pre-administration) and 0.083 h, 0.25 h, 0.5 h, 1 h, 2 h, 4 h, 6 h, 8 h, and 24 h after administration, and placed in an anticoagulant tube added with heparin sodium. The mixture was thoroughly vortexed and mixed, and centrifuged at 6000 g for 3 minutes at 2 to 8° C. For oral administration, blood was collected via the cheek puncture at 0 h (pre-administration) and 0.083 h, 0.25 h, 1 h, 2 h, 4 h, 6 h, 8 h, and 24 h after administration, and placed in an anticoagulant tube added with heparin sodium. The mixture was thoroughly vortexed and mixed, and centrifuged at 6000 g for 3 minutes at 2 to 8° C. Plasma concentrations were determined by LC-MS/MS method, and relevant pharmacokinetic parameters were calculated using Phoenix WinNonlin 8.2.0 pharmacokinetic software with non-compartmental model linear-log trapezoidal method.

[3] = Intragastric administration (5 mg/kg)
[4] = Intragastric administration 10 mg/kg

In the case of `O=C1CCC(c2noc3c(NC(=O)CN4CCN(C[C@H]5CC[C@H](n6cc(NC(=O)c7cnn8ccc(N9C[C@H]%10C[C@@H]9CO%10)nc78)c(C(F)F)n6)CC5)CC4)cccc23)C(=O)N1` (stereo partly shown) [Hydrochloride of WX015], the “Area under the drug-time curve (0-inf)” value [1, 3] was 1.14 µM·h, the Peak concentration [1, 3] was 0.14 µM and the “Time to peak concentration” value [1, 3] was 4.0 h. The “Area under the drug-time curve (0-inf)” value ([1]; Intravenous injection (0.5 mg/kg)) was 0.21 µM·h, the clearance ([1]; male, cynomolgus monkey, plasma, Intravenous injection (0.5 mg/kg)) was 48.5 mL/min/kg and the Vd ([1]; male, cynomolgus monkey, plasma, Intravenous injection (0.5 mg/kg), read-out: Apparent volume of distribution) was 8.83 L/kg. The half-life ([1]; male, cynomolgus monkey, plasma, Intravenous injection (0.5 mg/kg), read-out: Elimination half-life (converted)) was 2.33 h, the bioavailability ([1]; male, cynomolgus monkey, plasma, oral, IV 0.5 mg/kg, intragastric 5 mg/kg, read-out: Bioavailability F) was 55.5% and the “Area under the drug-time curve (0-inf)” value [2, 4] was 2.51 µM·h. For the same compound, the Peak concentration [2, 4] was 0.4 µM, the “Time to peak concentration” value [2, 4] was 1.33 h and the “Area under the drug-time curve (0-inf)” value ([2]; Intravenous injection 2 mg/kg) was 1.45 µM·h. The bioavailability ([2]; male, mouse, plasma, IV 2 mg/kg, PO 10 mg/kg, read-out: Bioavailability F) was 34.6%, the clearance ([2]; male, mouse, plasma, Intravenous injection 2 mg/kg) was 27.6 mL/min/kg and the Vd ([2]; male, mouse, plasma, Intravenous injection 2 mg/kg, read-out: Apparent volume of distribution) was 4.82 L/kg. The half-life ([2]; male, mouse, plasma, Intravenous injection 2 mg/kg, read-out: Elimination half-life (converted)) was 4.25 h.
